One block for each compound: values may come before it.
Legend:
D(1A) dopamine receptor = D(1A) dopamine receptor (Homo sapiens, UniProt P21728)
[1] = molecular target: 5-hydroxytryptamine receptor 2A (Homo sapiens, UniProt P28223); type: functional, cell-based
[2] = molecular target: Beta-2 adrenergic receptor (Homo sapiens, UniProt P07550)
Vasopressin V2 receptor = Vasopressin V2 receptor (Homo sapiens, UniProt P30518)
B2 bradykinin receptor = molecular target: T1, B2 bradykinin receptor (Homo sapiens, UniProt P30411)
T1 sequence (P30411 whole entry): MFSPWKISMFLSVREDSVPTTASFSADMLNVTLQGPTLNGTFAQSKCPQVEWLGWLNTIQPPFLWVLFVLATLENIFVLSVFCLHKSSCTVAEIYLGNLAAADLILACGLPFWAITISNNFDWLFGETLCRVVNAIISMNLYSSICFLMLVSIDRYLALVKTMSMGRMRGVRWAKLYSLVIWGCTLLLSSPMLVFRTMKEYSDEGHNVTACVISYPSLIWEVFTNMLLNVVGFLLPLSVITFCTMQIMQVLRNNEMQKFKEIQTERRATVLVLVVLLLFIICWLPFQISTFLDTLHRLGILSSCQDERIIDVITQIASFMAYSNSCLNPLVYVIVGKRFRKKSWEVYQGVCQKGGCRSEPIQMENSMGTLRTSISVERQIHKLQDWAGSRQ

[3] = molecular target: T2, Cholecystokinin receptor type A (Homo sapiens, UniProt P32238)
T2 sequence (P32238 whole entry): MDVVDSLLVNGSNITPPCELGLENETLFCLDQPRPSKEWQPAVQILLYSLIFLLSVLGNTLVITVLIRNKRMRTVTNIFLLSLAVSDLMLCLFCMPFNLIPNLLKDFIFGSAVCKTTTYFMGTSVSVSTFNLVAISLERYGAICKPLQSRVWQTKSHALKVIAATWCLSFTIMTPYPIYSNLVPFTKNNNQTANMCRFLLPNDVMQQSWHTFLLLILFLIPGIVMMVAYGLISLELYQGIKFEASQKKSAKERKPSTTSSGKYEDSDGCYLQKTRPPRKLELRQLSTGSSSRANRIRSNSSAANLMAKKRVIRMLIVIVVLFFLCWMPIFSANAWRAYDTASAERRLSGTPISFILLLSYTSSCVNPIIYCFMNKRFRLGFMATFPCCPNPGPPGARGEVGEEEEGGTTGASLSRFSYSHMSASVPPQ

Motilin receptor = Motilin receptor (Homo sapiens, UniProt O43193)
[4] = molecular target: T3, Neuropeptide Y receptor type 1 (Homo sapiens, UniProt P25929)
T3 sequence (P25929 whole entry): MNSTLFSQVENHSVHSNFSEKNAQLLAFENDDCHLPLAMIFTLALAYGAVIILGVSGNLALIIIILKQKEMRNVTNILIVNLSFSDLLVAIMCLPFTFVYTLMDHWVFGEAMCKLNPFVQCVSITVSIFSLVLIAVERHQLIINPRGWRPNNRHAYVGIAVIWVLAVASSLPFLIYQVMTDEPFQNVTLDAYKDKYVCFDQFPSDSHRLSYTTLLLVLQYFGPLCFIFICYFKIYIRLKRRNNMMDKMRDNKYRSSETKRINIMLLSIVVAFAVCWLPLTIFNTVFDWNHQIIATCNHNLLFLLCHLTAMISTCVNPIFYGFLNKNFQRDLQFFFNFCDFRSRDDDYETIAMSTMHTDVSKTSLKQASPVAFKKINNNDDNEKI

Progesterone receptor = molecular target: T4, Progesterone receptor (Homo sapiens, UniProt P06401); type: functional
T4 sequence (P06401 whole entry): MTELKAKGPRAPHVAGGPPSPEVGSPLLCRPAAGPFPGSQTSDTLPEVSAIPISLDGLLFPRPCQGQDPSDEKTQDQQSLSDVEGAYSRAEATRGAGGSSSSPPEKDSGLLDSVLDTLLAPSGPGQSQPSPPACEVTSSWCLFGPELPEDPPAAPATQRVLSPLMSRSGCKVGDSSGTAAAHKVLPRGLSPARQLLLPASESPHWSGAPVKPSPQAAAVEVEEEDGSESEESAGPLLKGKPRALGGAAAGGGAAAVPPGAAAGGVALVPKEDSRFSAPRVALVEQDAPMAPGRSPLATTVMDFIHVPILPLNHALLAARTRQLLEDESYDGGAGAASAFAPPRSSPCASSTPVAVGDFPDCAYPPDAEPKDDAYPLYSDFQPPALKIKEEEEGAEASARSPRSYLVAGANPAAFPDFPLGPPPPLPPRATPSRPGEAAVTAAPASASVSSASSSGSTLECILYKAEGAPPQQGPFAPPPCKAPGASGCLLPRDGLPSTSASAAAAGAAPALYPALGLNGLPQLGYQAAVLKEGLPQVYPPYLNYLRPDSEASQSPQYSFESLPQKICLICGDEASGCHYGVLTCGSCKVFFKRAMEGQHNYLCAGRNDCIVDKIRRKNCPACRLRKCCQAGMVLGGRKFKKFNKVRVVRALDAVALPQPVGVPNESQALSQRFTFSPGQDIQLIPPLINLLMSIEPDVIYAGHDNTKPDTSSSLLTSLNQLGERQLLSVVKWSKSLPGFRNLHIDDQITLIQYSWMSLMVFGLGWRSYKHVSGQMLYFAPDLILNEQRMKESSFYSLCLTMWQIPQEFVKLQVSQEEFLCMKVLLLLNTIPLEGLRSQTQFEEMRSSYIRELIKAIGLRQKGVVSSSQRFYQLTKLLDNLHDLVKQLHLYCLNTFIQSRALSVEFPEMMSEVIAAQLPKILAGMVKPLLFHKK

[5] = molecular target: Sodium-dependent serotonin transporter (Homo sapiens, UniProt P31645)
[6] = molecular target: T5, Alpha-1A adrenergic receptor (Homo sapiens, UniProt P35348)
T5 sequence (P35348 whole entry): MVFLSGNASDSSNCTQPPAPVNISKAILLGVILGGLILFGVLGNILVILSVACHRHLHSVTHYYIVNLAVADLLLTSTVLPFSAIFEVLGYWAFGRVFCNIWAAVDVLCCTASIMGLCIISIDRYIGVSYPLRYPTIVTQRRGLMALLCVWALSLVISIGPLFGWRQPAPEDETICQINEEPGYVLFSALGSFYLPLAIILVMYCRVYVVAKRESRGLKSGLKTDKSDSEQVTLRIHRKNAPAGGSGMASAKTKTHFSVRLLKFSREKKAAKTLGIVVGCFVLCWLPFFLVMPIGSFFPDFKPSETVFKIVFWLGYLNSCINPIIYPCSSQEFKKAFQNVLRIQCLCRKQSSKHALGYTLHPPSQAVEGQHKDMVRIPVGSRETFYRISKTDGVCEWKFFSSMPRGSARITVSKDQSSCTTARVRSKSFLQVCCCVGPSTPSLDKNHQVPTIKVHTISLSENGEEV
Also: assay procedure not described here.

Chain of Beta-2 adrenergic receptor (P07550 whole entry): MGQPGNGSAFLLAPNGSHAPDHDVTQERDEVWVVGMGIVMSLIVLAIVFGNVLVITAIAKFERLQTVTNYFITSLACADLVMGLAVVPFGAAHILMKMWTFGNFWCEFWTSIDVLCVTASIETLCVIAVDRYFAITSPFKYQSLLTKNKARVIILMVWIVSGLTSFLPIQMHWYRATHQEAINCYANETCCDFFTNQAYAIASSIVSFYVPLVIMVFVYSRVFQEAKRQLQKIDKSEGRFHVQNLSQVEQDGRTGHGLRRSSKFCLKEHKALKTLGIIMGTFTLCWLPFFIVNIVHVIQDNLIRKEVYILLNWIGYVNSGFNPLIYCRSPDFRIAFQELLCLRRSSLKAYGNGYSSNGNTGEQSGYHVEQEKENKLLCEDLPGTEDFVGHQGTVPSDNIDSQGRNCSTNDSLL
Chain of Vasopressin V2 receptor (P30518 whole entry): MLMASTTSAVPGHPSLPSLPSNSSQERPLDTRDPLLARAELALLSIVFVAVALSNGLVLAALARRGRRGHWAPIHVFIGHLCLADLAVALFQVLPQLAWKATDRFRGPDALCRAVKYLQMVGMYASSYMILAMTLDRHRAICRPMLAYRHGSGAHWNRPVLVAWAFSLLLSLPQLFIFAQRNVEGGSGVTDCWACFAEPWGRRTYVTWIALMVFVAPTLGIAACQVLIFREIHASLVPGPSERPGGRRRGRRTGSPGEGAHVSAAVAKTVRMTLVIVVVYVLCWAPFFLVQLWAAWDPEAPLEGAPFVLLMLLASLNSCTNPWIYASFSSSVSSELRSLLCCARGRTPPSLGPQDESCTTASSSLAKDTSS
Chain of Sodium-dependent serotonin transporter (P31645 whole entry): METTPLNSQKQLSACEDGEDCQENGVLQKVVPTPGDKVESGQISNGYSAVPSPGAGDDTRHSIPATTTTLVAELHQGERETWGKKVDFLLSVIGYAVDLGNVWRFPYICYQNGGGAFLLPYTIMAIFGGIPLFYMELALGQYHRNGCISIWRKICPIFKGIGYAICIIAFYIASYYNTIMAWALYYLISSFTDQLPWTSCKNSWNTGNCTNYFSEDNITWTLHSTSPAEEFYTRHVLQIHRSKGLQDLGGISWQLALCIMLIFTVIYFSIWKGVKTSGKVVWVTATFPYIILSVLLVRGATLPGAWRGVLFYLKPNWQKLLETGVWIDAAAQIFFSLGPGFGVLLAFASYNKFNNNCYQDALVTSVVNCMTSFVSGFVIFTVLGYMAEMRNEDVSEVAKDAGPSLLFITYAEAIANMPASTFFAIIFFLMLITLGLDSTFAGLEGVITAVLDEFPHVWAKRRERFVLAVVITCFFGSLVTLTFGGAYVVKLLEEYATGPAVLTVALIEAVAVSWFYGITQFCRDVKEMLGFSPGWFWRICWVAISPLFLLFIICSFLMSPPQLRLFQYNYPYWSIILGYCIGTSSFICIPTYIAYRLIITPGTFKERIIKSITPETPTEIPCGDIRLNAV
Chain of 5-hydroxytryptamine receptor 2A (P28223 whole entry): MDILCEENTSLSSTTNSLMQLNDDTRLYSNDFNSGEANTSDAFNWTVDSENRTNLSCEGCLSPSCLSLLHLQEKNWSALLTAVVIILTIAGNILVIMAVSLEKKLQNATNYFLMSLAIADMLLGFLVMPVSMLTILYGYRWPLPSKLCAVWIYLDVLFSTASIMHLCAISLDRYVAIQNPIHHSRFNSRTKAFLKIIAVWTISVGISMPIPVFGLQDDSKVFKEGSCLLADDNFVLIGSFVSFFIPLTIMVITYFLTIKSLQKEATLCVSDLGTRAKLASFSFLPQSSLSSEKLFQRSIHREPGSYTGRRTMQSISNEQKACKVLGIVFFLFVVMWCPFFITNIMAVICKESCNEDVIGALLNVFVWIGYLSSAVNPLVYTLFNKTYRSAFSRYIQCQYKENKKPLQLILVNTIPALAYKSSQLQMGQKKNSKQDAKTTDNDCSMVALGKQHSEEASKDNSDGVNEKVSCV
Chain of Motilin receptor (O43193 whole entry): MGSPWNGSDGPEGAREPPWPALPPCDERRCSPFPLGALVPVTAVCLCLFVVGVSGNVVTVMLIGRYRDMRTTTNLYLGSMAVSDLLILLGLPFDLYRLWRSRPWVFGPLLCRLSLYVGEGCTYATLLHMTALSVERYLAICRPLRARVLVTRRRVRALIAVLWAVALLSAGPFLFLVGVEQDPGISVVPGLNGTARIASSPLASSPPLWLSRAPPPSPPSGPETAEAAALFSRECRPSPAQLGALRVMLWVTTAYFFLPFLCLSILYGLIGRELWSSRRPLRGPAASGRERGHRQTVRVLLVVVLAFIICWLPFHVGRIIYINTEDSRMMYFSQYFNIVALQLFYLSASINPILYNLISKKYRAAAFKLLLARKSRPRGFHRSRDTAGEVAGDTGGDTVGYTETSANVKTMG
Chain of D(1A) dopamine receptor (P21728 whole entry): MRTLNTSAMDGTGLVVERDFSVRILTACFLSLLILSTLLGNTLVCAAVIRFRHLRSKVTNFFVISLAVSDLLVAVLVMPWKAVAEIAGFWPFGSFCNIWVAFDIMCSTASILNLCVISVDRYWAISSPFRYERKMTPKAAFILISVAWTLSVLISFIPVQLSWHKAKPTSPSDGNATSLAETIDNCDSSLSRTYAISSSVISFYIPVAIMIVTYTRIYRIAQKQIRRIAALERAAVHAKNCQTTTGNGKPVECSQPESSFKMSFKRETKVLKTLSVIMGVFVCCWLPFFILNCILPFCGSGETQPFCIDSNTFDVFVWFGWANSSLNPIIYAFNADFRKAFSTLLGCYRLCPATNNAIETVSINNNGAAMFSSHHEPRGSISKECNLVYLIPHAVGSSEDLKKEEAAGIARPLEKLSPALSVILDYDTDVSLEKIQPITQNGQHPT

Compound: CO/N=C(\C(=O)N[C@@H]1C(=O)N2C(C(=O)OCOC(=O)C(C)(C)C)=C(C)CS[C@H]12)c1csc(N)n1
AC50 (D(1A) dopamine receptor): > 30 µM | AC50 [1]: > 30 µM

Compound: O=C(Cn1ccnc1[N+](=O)[O-])NCc1ccccc1 [BENZNIDAZOLE]
AC50 [2]: > 30 µM | AC50 (Vasopressin V2 receptor): > 30 µM | AC50 (B2 bradykinin receptor): > 30 µM | AC50 [3]: > 30 µM | AC50 (D(1A) dopamine receptor): > 30 µM | AC50 [1]: > 30 µM | AC50 (Motilin receptor): > 30 µM | AC50 [4]: > 30 µM | AC50 (Progesterone receptor): > 30 µM | AC50 [5]: > 30 µM

Compound: COCC1=C(C(=O)OC(C)OC(=O)OC(C)C)N2C(=O)[C@@H](NC(=O)/C(=N\OC)c3csc(N)n3)[C@H]2SC1 (some centres not stated) [CEFPODOXIME PROXETIL]
AC50 (D(1A) dopamine receptor): > 30 µM | AC50 [1]: > 30 µM

Compound: NS(=O)(=O)c1cc2c(cc1Cl)NC(CC1CCCC1)NS2(=O)=O (configuration not stated) [CYCLOPENTHIAZIDE]
AC50 (D(1A) dopamine receptor): > 30 µM | AC50 [1]: > 30 µM

Compound: Nc1nc(-n2cc(C(=O)O)c(=O)c3cc(F)c(N4CC(O)C4)c(Cl)c32)c(F)cc1F [DELAFLOXACIN]
AC50 (D(1A) dopamine receptor): > 30 µM

Compound: CC1=NN(c2ccccc2)C(=O)C1 [EDARAVONE]
AC50 (D(1A) dopamine receptor): > 30 µM

Compound: N/N=c1/cc2c(n[nH]1)CCN(C(=O)c1ccccc1)C2 [ENDRALAZINE]
AC50 (D(1A) dopamine receptor): > 30 µM | AC50 [1]: > 30 µM

Compound: CC(C)=CCC1C(=O)N(c2ccccc2)N(c2ccccc2)C1=O [FEPRAZONE]
AC50 (D(1A) dopamine receptor): > 30 µM

Compound: CN1C(=O)N(C)C2C1N(C)C(=O)N2C (configuration not stated) [MEBICAR]
AC50 (D(1A) dopamine receptor): > 30 µM | AC50 [1]: > 30 µM

Compound: Cn1cc[nH]c1=S [METHIMAZOLE]
AC50 (D(1A) dopamine receptor): > 30 µM

Compound: NC(=O)c1cccc2cn(-c3ccc([C@@H]4CCCNC4)cc3)nc12 [NIRAPARIB]
AC50 (D(1A) dopamine receptor): > 30 µM

AC50 [6]: > 10 µM | AC50 [2]: > 10 µM | AC50 (Vasopressin V2 receptor): > 10 µM | AC50 (B2 bradykinin receptor): > 10 µM | AC50 [3]: > 10 µM | AC50 [1]: > 30 µM | AC50 (Motilin receptor): > 10 µM | AC50 [4]: > 10 µM | AC50 (Progesterone receptor): > 10 µM | AC50 [5]: 39.6 µM
Compound: CC(C)NCC1CCc2cc(CO)c([N+](=O)[O-])cc2N1 (configuration not stated) [OXAMNIQUINE]

Compound: Nc1ccc(/N=N/c2ccccc2)c(N)n1 [PHENAZOPYRIDINE]
AC50 (D(1A) dopamine receptor): > 30 µM | AC50 [1]: > 30 µM

Compound: O=C(O)CCn1c2c(c3ccccc31)C[C@H](NS(=O)(=O)c1ccc(F)cc1)CC2 [RAMATROBAN]
AC50 [6]: > 30 µM | AC50 [2]: > 30 µM | AC50 (Vasopressin V2 receptor): > 30 µM | AC50 (B2 bradykinin receptor): > 30 µM | AC50 [3]: 24.8 µM | AC50 [1]: > 10 µM | AC50 (Motilin receptor): > 30 µM | AC50 [4]: > 30 µM | AC50 (Progesterone receptor): > 30 µM | AC50 [5]: > 30 µM

AC50 [6]: > 30 µM | AC50 [2]: > 30 µM | AC50 (Vasopressin V2 receptor): > 30 µM | AC50 (B2 bradykinin receptor): > 30 µM | AC50 [3]: > 30 µM | AC50 [1]: > 30 µM | AC50 (Motilin receptor): > 30 µM | AC50 [4]: > 30 µM | AC50 (Progesterone receptor): > 30 µM | AC50 [5]: > 30 µM
Compound: CC(=O)N[C@H]1[C@H]([C@H](O)[C@H](O)CO)OC(C(=O)O)=C[C@@H]1N=C(N)N [ZANAMIVIR]
